The test system of assay [1] is PAXF1657 EV. The assay is described as follows: 7-day cellular proliferation assay (CellTiter-Glo), PAXF1657 EV. In kind it is cell-based. To be noted: 168 h, 7-day, read-out: 7-day proliferation assay: IC50 GeoMean (uM) [Cell Line: PAXF1657 EV]. In a few lines: (§1)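 Viability by CellTiter-Glo after 7 days at 37° C., with compound-containing media replaced on day 3. Cells (500/well, RPMI1640 + 10% FBS) were PAXF1657 pairs: GRK2 overexpression vs empty vector, or CRISPR GRK2 knockout vs non-targeting clones; doses 30 μM-0.0002 μM final, 10 points, 0.3% DMSO.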
Background: In ATP-based viability assays light output follows the ATP content of the culture.

Assay [2] deals with T1, GRK2 (Homo sapiens, UniProt P25098).
T1 sequence (P25098 1-689): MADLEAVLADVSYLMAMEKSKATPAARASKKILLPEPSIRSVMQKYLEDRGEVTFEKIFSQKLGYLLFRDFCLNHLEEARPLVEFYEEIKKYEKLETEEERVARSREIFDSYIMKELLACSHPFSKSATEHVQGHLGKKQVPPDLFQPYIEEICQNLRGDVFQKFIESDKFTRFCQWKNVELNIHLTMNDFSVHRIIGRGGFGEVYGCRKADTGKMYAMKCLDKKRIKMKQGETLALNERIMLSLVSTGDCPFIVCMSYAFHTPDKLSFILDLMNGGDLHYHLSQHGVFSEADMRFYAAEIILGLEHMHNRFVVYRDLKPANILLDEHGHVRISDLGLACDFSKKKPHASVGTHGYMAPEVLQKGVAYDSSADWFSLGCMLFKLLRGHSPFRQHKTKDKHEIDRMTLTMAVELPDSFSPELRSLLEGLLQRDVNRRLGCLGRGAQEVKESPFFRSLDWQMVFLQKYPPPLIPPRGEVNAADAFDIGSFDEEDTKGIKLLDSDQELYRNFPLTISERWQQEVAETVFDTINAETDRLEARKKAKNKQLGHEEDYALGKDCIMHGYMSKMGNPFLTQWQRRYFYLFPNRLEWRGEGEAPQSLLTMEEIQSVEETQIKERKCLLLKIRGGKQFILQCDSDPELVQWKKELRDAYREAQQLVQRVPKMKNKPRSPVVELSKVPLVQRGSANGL
The assay is described as follows: ADPGlo GRK2 Inhibition Assay (Example 2). The format is biochemical. Conditions: ADP-Glo, 10 μM ATP; read-out: ADP Glo Enzymatic GRK2 Assay: IC50 (nM) (Example 2). As for the experimental part:
Assay: GRK2 (7.5 nM) was incubated with ATP (10 μM) and GRKtide (0.3 mg/mL) in 5 μL of assay buffer (see above) for 180 min at room temperature. HTS was performed using 1 μM compound. Compounds were dissolved in 100% DMSO, serially diluted tree-fold from 100 μM concentration to 46 nM and transferred (50 nL) into assay ready plate.
Materials: GRK2 was purchased from SignalChem (Cat #A14-10G, Lot #X645-3). Substrate GRKtide was from SignalChem (Cat #G46-58, Lot #R339-6). ADP-Glo Kinase Assay from Promega (Cat #V9102). Assay buffer consisted of 25 mM HEPES (pH7.5), 10 mM MgCl2, 0.01% Tween-20, 1 mM DDT. 384-well white plates were from Greiner […] (Item #784075).
HTS protocol: Take 384 well plate with 50 nL of compound in columns 3-22/DMSO solution 1-2,23-24. Add 2.5 μL assay buffer to columns 23 and 24 using Thermo Scientific Multidrop Combi Dispenser. Add 2.5 μL of 2× enzyme solution (15 nM in 1× assay buffer) using Thermo Scientific Multidrop Combi Reagent Dispenser to all columns except of 23 and 24. Incubate for 15 minutes. Fill plate with 2.5 μL of 2× substrate mix (20 μM ATP and 0.6 mg/mL GRKtide in 1× assay buffer) using Thermo Scientific Multidrop Combi Reagent Dispenser. Spin 15 seconds at 1000 rpm and incubate for 180 min at room temperature. Add 5 μL ADP-Glo reagent to all the wells. Spin 15 seconds at 1000 rpm and incubate for 40 min at room temperature. Add 10 μL Detection solution to all the wells. Incubate for 30 min at room temperature. Read plate in Luminescent mode on BMG PheraStar FSX (gain=3600).
Data Analysis: Data were analyzed in GraphPad Prism 8.0.2. Each HTS plate contains compounds in columns 3-22, controls (enzyme, no compound) in columns 1 and 2, and blanks (no enzyme) in columns 23 and 24. HTS percent inhibition was calculated for each compound from the signal in luminescence units and the mean of the plate controls and the mean of the plate blanks using the following equation: % Inhibition=100*(1−((signal−blank mean)/(control mean−blank mean))). At the final stage of data processing, we obtain dose-response curves, tables and SDF-files with the results of screening for each substance.

For assay [3], the system named is PAXF1657 KO Clone #4. Description: 7-day cellular proliferation assay (CellTiter-Glo), PAXF1657 KO Clone #4. In kind it is cell-based. To be noted: 168 h, 7-day, read-out: 7-day proliferation assay: IC50 GeoMean (uM) [Cell Line: PAXF1657 KO Clone #4]. In a few lines:
as §1

Each structure is given as a SMILES string.

Regarding `Cc1ncsc1-c1ccc(CNC(=O)[C@@H]2C[C@@H](O)CN2C(=O)[C@@H](NC(=O)COCCOCCOCCOCCOCCOCCCCCCOc2cccc(CNC(=O)c3cccc(NCc4nnc(-c5ccncn5)n4C)c3)c2)C(C)(C)C)cc1` [Compound D100], the IC50 in assay [1] was > 10 µM; in assay [2] it was < 100 nM; in assay [3] it was > 10 µM.

Turning to `Cc1ncsc1-c1ccc(CNC(=O)[C@@H]2C[C@@H](O)CN2C(=O)[C@@H](NC(=O)COCCOCCCCCCOc2cccc(CNC(=O)c3cccc(NCc4nnc(-c5ccncn5)n4C)c3)c2)C(C)(C)C)cc1` [Compound D101], the IC50 was < 1 µM in assay [1], < 100 nM in assay [2] and 1 to 10 µM in assay [3].

Values taken from patent publication US20240174637A1, “DEGRADERS OF GRK2 AND USES THEREOF” (Sonata Therapeutics, Inc., priority 2021, published 2024).
